Measured values: the NIST ThermoML archive (doi:10.1016/j.jct.2016.10.023)

Assay: xn = mol fraction of the nth substance listed
Settings: Constant-volume piezometry

CCCCC [pentane] + CCCO
Liquid
Settings | mass density [kg/m3]
305.05 K, x1 = 0.8 | 631.08
312.65 K, x1 = 0.8 | 623.57
317.85 K, x1 = 0.5 | 663.63
324.25 K, x1 = 0.8 | 611.04
334.25 K, x1 = 0.8 | 601.01
351.05 K, x1 = 0.5 | 631.49
353.55 K, x1 = 0.8 | 575.9
368.45 K, x1 = 0.5 | 611.87
372.15 K, x1 = 0.8 | 553.38
381.85 K, x1 = 0.2 | 663.76
383.55 K, x1 = 0.5 | 592.03
394.65 K, x1 = 0.8 | 524.7
396.15 K, x1 = 0.2 | 640.78
410.15 K, x1 = 0.8 | 499.43
410.75 K, x1 = 0.5 | 551.97
415.75 K, x1 = 0.2 | 618.67
425.55 K, x1 = 0.8 | 469.31
429.15 K, x1 = 0.2 | 598.54
431.15 K, x1 = 0.5 | 522.22

Settings | mass density [kg/m3]
308.15 K, 2402 kPa, Liquid, x1 = 0.8 | 630.94
313.15 K, 157 kPa, Liquid, x1 = 0.8 | 623.55
313.15 K, 6022 kPa, Liquid, x1 = 0.8 | 630.7
314.15 K, 765 kPa, Liquid, x1 = 0.8 | 623.51
318.15 K, 3615 kPa, Liquid, x1 = 0.8 | 623.33
323.15 K, 3447 kPa, Liquid, x1 = 0.5 | 663.38
323.15 K, 7107 kPa, Liquid, x1 = 0.8 | 623.1
323.15 K, 13373 kPa, Liquid, x1 = 0.8 | 630.24
325.15 K, 801 kPa, Liquid, x1 = 0.8 | 611.01
333.15 K, 5935 kPa, Liquid, x1 = 0.8 | 610.66
333.15 K, 9686 kPa, Liquid, x1 = 0.5 | 662.92
333.15 K, 14195 kPa, Liquid, x1 = 0.8 | 622.65
333.15 K, 20785 kPa, Liquid, x1 = 0.8 | 629.77
335.15 K, 769 kPa, Liquid, x1 = 0.8 | 600.98
338.15 K, 2550 kPa, Liquid, x1 = 0.8 | 600.85
343.15 K, 5592 kPa, Liquid, x1 = 0.8 | 600.65
343.15 K, 12414 kPa, Liquid, x1 = 0.8 | 610.23
343.15 K, 16000 kPa, Liquid, x1 = 0.5 | 662.46
343.15 K, 21183 kPa, Liquid, x1 = 0.8 | 622.2
343.15 K, 28234 kPa, Liquid, x1 = 0.8 | 629.31
351.15 K, 441 kPa, Liquid, x1 = 0.5 | 631.49
353.15 K, 1647 kPa, Liquid, x1 = 0.5 | 631.4
353.15 K, 11601 kPa, Liquid, x1 = 0.8 | 600.23
353.15 K, 18747 kPa, Liquid, x1 = 0.8 | 609.8
353.15 K, 22340 kPa, Liquid, x1 = 0.5 | 661.99
353.15 K, 28151 kPa, Liquid, x1 = 0.8 | 621.75
353.15 K, 35636 kPa, Liquid, x1 = 0.8 | 628.84
355.15 K, 1219 kPa, Liquid, x1 = 0.8 | 575.84
358.15 K, 2713 kPa, Liquid, x1 = 0.8 | 575.73
363.15 K, 5237 kPa, Liquid, x1 = 0.8 | 575.54
363.15 K, 7726 kPa, Liquid, x1 = 0.5 | 630.97
363.15 K, 17738 kPa, Liquid, x1 = 0.8 | 599.81
363.15 K, 25314 kPa, Liquid, x1 = 0.8 | 609.37
363.15 K, 28606 kPa, Liquid, x1 = 0.5 | 661.53
363.15 K, 35183 kPa, Liquid, x1 = 0.8 | 621.29
363.15 K, 42979 kPa, Liquid, x1 = 0.8 | 628.38
372.65 K, 854 kPa, Liquid, x1 = 0.8 | 553.36
373.15 K, 1058 kPa, Liquid, x1 = 0.8 | 553.35
373.15 K, 3137 kPa, Liquid, x1 = 0.5 | 611.68
373.15 K, 10414 kPa, Liquid, x1 = 0.8 | 575.16
373.15 K, 13490 kPa, Liquid, x1 = 0.5 | 630.54
373.15 K, 23787 kPa, Liquid, x1 = 0.8 | 599.4
373.15 K, 31687 kPa, Liquid, x1 = 0.8 | 608.94
373.15 K, 34882 kPa, Liquid, x1 = 0.5 | 661.07
373.15 K, 42247 kPa, Liquid, x1 = 0.8 | 620.84
378.15 K, 5874 kPa, Liquid, x1 = 0.5 | 611.47
383.15 K, 1487 kPa, Liquid, x1 = 0.2 | 663.69
383.15 K, 4567 kPa, Liquid, x1 = 0.5 | 602.79
383.15 K, 5590 kPa, Liquid, x1 = 0.8 | 552.99
383.15 K, 8687 kPa, Liquid, x1 = 0.5 | 611.26
383.15 K, 15678 kPa, Liquid, x1 = 0.8 | 574.78
383.15 K, 19194 kPa, Liquid, x1 = 0.5 | 630.11
383.15 K, 29885 kPa, Liquid, x1 = 0.8 | 598.99
383.15 K, 38107 kPa, Liquid, x1 = 0.8 | 608.51
384.15 K, 1047 kPa, Liquid, x1 = 0.5 | 592.01
393.15 K, 941 kPa, Liquid, x1 = 0.5 | 579.06
393.15 K, 5707 kPa, Liquid, x1 = 0.5 | 591.66
393.15 K, 8491 kPa, Liquid, x1 = 0.2 | 663.21
393.15 K, 10012 kPa, Liquid, x1 = 0.5 | 602.39
393.15 K, 10151 kPa, Liquid, x1 = 0.8 | 552.64
393.15 K, 14096 kPa, Liquid, x1 = 0.5 | 610.86
393.15 K, 20747 kPa, Liquid, x1 = 0.8 | 574.4
393.15 K, 25038 kPa, Liquid, x1 = 0.5 | 629.68
393.15 K, 36012 kPa, Liquid, x1 = 0.8 | 598.57
393.15 K, 44637 kPa, Liquid, x1 = 0.8 | 608.08
395.15 K, 1157 kPa, Liquid, x1 = 0.8 | 524.69
398.15 K, 2324 kPa, Liquid, x1 = 0.8 | 524.59
403.15 K, 905 kPa, Gas, x1 = 0.8 | 22.65
403.15 K, 4215 kPa, Liquid, x1 = 0.8 | 524.43
403.15 K, 4306 kPa, Liquid, x1 = 0.2 | 640.49
403.15 K, 5622 kPa, Liquid, x1 = 0.5 | 578.69
403.15 K, 10647 kPa, Liquid, x1 = 0.5 | 591.27
403.15 K, 14687 kPa, Liquid, x1 = 0.8 | 552.29
403.15 K, 15313 kPa, Liquid, x1 = 0.2 | 662.74
403.15 K, 15471 kPa, Liquid, x1 = 0.5 | 601.98
403.15 K, 19586 kPa, Liquid, x1 = 0.5 | 610.45
403.15 K, 25962 kPa, Liquid, x1 = 0.8 | 574.02
403.15 K, 30841 kPa, Liquid, x1 = 0.5 | 629.25
403.15 K, 42147 kPa, Liquid, x1 = 0.8 | 598.16
413.15 K, 944 kPa, Gas, x1 = 0.8 | 22.64
413.15 K, 2137 kPa, Liquid, x1 = 0.5 | 551.89
413.15 K, 2268 kPa, Liquid, x1 = 0.8 | 499.34
413.15 K, 7884 kPa, Liquid, x1 = 0.8 | 524.12
413.15 K, 10313 kPa, Liquid, x1 = 0.5 | 578.32
413.15 K, 10612 kPa, Liquid, x1 = 0.2 | 640.04
413.15 K, 15843 kPa, Liquid, x1 = 0.5 | 590.88
413.15 K, 19245 kPa, Liquid, x1 = 0.8 | 551.94
413.15 K, 21025 kPa, Liquid, x1 = 0.5 | 601.58
413.15 K, 22059 kPa, Liquid, x1 = 0.2 | 662.26
413.15 K, 24988 kPa, Liquid, x1 = 0.5 | 610.04
413.15 K, 31136 kPa, Liquid, x1 = 0.8 | 573.65
413.15 K, 36585 kPa, Liquid, x1 = 0.5 | 628.82
414.15 K, 712 kPa, Gas, x1 = 0.5 | 15.6
415.15 K, 715 kPa, Gas, x1 = 0.5 | 15.6
416.15 K, 1229 kPa, Liquid, x1 = 0.2 | 618.66
416.15 K, 1374 kPa, Gas, x1 = 0.8 | 36.88
423.15 K, 737 kPa, Gas, x1 = 0.5 | 15.59
423.15 K, 982 kPa, Gas, x1 = 0.8 | 22.63
423.15 K, 1418 kPa, Gas, x1 = 0.8 | 36.86
423.15 K, 4884 kPa, Liquid, x1 = 0.2 | 618.37
423.15 K, 5404 kPa, Liquid, x1 = 0.8 | 499.05
423.15 K, 5815 kPa, Liquid, x1 = 0.5 | 551.55
423.15 K, 11608 kPa, Liquid, x1 = 0.8 | 523.8
423.15 K, 14921 kPa, Liquid, x1 = 0.5 | 577.95
423.15 K, 16915 kPa, Liquid, x1 = 0.2 | 639.59
423.15 K, 20842 kPa, Liquid, x1 = 0.5 | 590.5
423.15 K, 23598 kPa, Liquid, x1 = 0.8 | 551.59
423.15 K, 26392 kPa, Liquid, x1 = 0.5 | 601.18
423.15 K, 28950 kPa, Liquid, x1 = 0.2 | 661.79
423.15 K, 30447 kPa, Liquid, x1 = 0.5 | 609.63
423.15 K, 36411 kPa, Liquid, x1 = 0.8 | 573.27
426.15 K, 1900 kPa, Liquid, x1 = 0.8 | 469.29
432.15 K, 2018 kPa, Liquid, x1 = 0.5 | 522.19
433.15 K, 760 kPa, Gas, x1 = 0.5 | 15.59
433.15 K, 1023 kPa, Gas, x1 = 0.8 | 22.62
433.15 K, 1472 kPa, Gas, x1 = 0.8 | 36.85
433.15 K, 2403 kPa, Liquid, x1 = 0.5 | 522.16
433.15 K, 3158 kPa, Liquid, x1 = 0.2 | 598.39
433.15 K, 3619 kPa, Liquid, x1 = 0.8 | 469.11
433.15 K, 8493 kPa, Liquid, x1 = 0.8 | 498.76
433.15 K, 9460 kPa, Liquid, x1 = 0.5 | 551.22
433.15 K, 10196 kPa, Liquid, x1 = 0.2 | 617.96
433.15 K, 15352 kPa, Liquid, x1 = 0.8 | 523.48
433.15 K, 19645 kPa, Liquid, x1 = 0.5 | 577.58
433.15 K, 23135 kPa, Liquid, x1 = 0.2 | 639.15
433.15 K, 26095 kPa, Liquid, x1 = 0.5 | 590.11
433.15 K, 28096 kPa, Liquid, x1 = 0.8 | 551.24
433.15 K, 31893 kPa, Liquid, x1 = 0.5 | 600.78
